The source made the active and inactive calls. The calls are words filed in the database; no cut-off is given here.
Experiments:
Format in all cases: cell-based
Settings in all cases: Human immunodeficiency virus 1
TREx-HeLa-Vpr [1] = assay: Inhibition of -c-myc-His6 tagged HIV1 NL4-3 Vpr expressed in human TREx-HeLa-Vpr cells assessed as cell viability at 6.25 uM after 48 hrs in presence of tetracycline by WST8 assay
TREx-HeLa-Vpr [2] = assay: Inhibition of -c-myc-His6 tagged HIV1 NL4-3 Vpr expressed in human TREx-HeLa-Vpr cells assessed as cell viability at 1.56 uM after 48 hrs in presence of tetracycline by WST8 assay
TREx-HeLa-Vpr [3] = assay: Inhibition of -c-myc-His6 tagged HIV1 NL4-3 Vpr expressed in human TREx-HeLa-Vpr cells assessed as cell viability at 3.12 uM after 48 hrs in presence of tetracycline by WST8 assay
TREx-HeLa-Vpr [4] = assay: Inhibition of -c-myc-His6 tagged HIV1 NL4-3 Vpr expressed in human TREx-HeLa-Vpr cells assessed as cell viability at 5 uM after 48 hrs in presence of tetracycline by WST8 assay

Row | Compound | Cell viability (TREx-HeLa-Vpr [1]) | Activity (TREx-HeLa-Vpr [2]) | Activity (TREx-HeLa-Vpr [3]) | inhibition (TREx-HeLa-Vpr [1]) | inhibition (TREx-HeLa-Vpr [2]) | inhibition (TREx-HeLa-Vpr [3]) | Activity (TREx-HeLa-Vpr [4])
1 | C=C[C@]1(C)C=C2[C@H](OC(C)=O)[C@@H](O)[C@H]3C(C)(C)CCC[C@]3(C)[C@H]2CC1 | 96% | 127% | 114% |  |  |  | 
2 | C=C[C@]1(C)C=C2C[C@@H](O)[C@H]3C(C)(C)CCC[C@]3(C)[C@@]2(OC)CC1 |  |  |  | inactive | inactive | inactive | 
3 | C=C[C@]1(C)C=C2CC[C@H]3C(C)(C)CC[C@H](O)[C@]3(C)[C@H]2[C@H](O)C1 |  |  |  | inactive | inactive | inactive | 
4 | C=C[C@]1(C)C=C2[C@H](O)C[C@H]3C(C)(C)CCC[C@]3(C)[C@H]2CC1 |  |  |  | inactive | inactive | inactive | 
5 | C=C[C@]1(C)C=C2C(=O)C[C@H]3C(C)(C)CCC[C@]3(C)[C@@]2(O)CC1 |  |  |  | inactive | inactive | inactive | 
6 | C=C[C@]1(C)C=C2C[C@@H](O)[C@H]3C(C)(C)CC[C@H](OC(C)=O)[C@]3(C)[C@H]2CC1 | 105% | 130% | 116% |  |  |  | 
7 | C=C[C@@]1(C)CCC2=C(C[C@@H](O)[C@H]3C(C)(C)CCC[C@]23C)[C@H]1OC |  |  |  | inactive | inactive | inactive | 
8 | C=C[C@@]1(C)C=C2CC[C@@H]3C(C)(C)C[C@@H](O)C[C@@]3(C)[C@@H]2CC1 |  |  |  | inactive | inactive | inactive | 
9 | COc1c(C=O)c(O)cc2c1C(=O)c1ccccc1C2=O |  |  |  |  |  |  | 137%
10 | C=C[C@]1(C)C=C2CC[C@H]3C(C)(C)C[C@H](O)[C@H](O)[C@]3(C)[C@H]2[C@H](O)C1 |  |  |  | inactive | inactive | inactive | 
11 | CCOC(=O)/C=C/c1ccc(OC)cc1 |  |  |  | inactive | inactive | inactive | 
12 | C=C[C@]1(C)C=C2CC[C@H]3C(C)(C)[C@H](O)C[C@H](O)[C@]3(C)[C@H]2CC1 |  |  |  | inactive | inactive | inactive | 
13 | C=C[C@@]1(C)CCC2=C(C[C@@H](O)[C@H]3C(C)(C)CC[C@H](O)[C@]23C)[C@H]1O |  |  |  | inactive | inactive | inactive | 
14 | C=C[C@]1(C)C=C2C[C@@H](O)[C@H]3C(C)(C)CCC[C@]3(C)[C@H]2CC1 |  |  |  | inactive | inactive | inactive | 
15 | C=C[C@]1(C)C=C2C[C@@H](O)[C@H]3C(C)(C)[C@H](O)C[C@H](O)[C@]3(C)[C@H]2CC1 |  |  |  | inactive | inactive | inactive | 
16 | C=C[C@@]1(C)CCC2=C(C(=O)C[C@H]3C(C)(C)CCC[C@]23C)[C@H]1O |  |  |  | inactive | inactive | inactive | 

Row | Compound | Cell viability (TREx-HeLa-Vpr [1]) | Activity (TREx-HeLa-Vpr [2]) | Activity (TREx-HeLa-Vpr [3]) | inhibition (TREx-HeLa-Vpr [1]) | inhibition (TREx-HeLa-Vpr [2]) | inhibition (TREx-HeLa-Vpr [3]) | Activity (TREx-HeLa-Vpr [4])
17 | C=C[C@@]1(C)CCC2=C(C[C@@H](O)[C@H]3C(C)(C)CC[C@H](O)[C@]23C)[C@@H]1OC |  |  |  | inactive | inactive | inactive | 
18 | C=C[C@]1(C)C=C2[C@@H](OC(C)=O)[C@@H](O)[C@H]3C(C)(C)CCC[C@]3(C)[C@@]2(O)CC1 |  |  |  | inactive | inactive | inactive | 
19 | C=C[C@]1(C)C=C2[C@H](OC(C)=O)C[C@H]3C(C)(C)CCC[C@]3(C)[C@@]2(O)CC1 |  |  |  | inactive | inactive | inactive | 
20 | C=C[C@]1(C)C=C2C[C@@H](OC(C)=O)[C@H]3C(C)(C)CCC[C@]3(C)[C@@]2(O)CC1 |  |  |  | inactive | inactive | inactive | 
21 | C=C[C@@]1(C)CCC2=C(C[C@@H](O)[C@H]3C(C)(C)CCC[C@]23C)[C@@H]1OC | 114% | 126% | 119% |  |  |  | 
22 | C=C[C@@]1(C)CCC2=C(CC[C@H]3C(C)(C)CCC[C@]23C)[C@H]1O | 104% | 116% | 106% |  |  |  | 
23 | C=C[C@]1(C)C=C2CC[C@H]3C(C)(C)C[C@H](O)[C@H](O)[C@]3(C)[C@@]2(O)CC1 |  |  |  | inactive | inactive | inactive | 
24 | C=C[C@]1(C)C=C2C(=O)C[C@H]3C(C)(C)CC[C@H](O)[C@]3(C)[C@H]2CC1 |  |  |  | inactive | inactive | inactive | 
25 | C=C[C@]1(C)C=C2C[C@@H](O)[C@H]3C(C)(C)CC[C@H](O)[C@]3(C)[C@H]2CC1 |  |  |  | inactive | inactive | inactive | 
26 | C=C[C@]1(C)C=C2[C@@H](O)C[C@H]3C(C)(C)CCC[C@]3(C)[C@@]2(O)CC1 |  |  |  | inactive | inactive | inactive | 
27 | C=C[C@@]1(C)CCC2=C(C[C@@H](O)[C@H]3C(C)(C)CCC[C@]23C)C1=O | 98% | 114% | 106% |  |  |  | 
28 | C=C[C@]1(C)C=C2[C@@H](O)[C@@H](O)[C@H]3C(C)(C)CCC[C@]3(C)[C@@]2(O)CC1 | 96% | 130% | 111% |  |  |  | 
29 | C=C[C@]1(C)C=C2CC[C@H]3C(C)(C)C[C@H](O)[C@H](O)[C@]3(C)[C@H]2CC1 |  |  |  | inactive | inactive | inactive | 
30 | C=C[C@@]1(C)CCC2=C(C[C@@H](O)[C@H]3C(C)(C)CCC[C@]23C)[C@H]1O |  |  |  | inactive | inactive | inactive | 
31 | C=C[C@]1(C)C=C2CC[C@H]3C(C)(C)CC[C@H](O)[C@]3(C)[C@H]2CC1 |  |  |  | inactive | inactive | inactive | 
32 | C=C[C@@]1(C)CCC2=C(C[C@@H](O)[C@H]3C(C)(C)CCC[C@]23C)[C@@H]1O | 157% | 180% | 170% |  |  |  | 
